Reference: patent publication US20240228506A1, “RIPK1 INHIBITORS AND METHODS OF USE” (Merck Sharp & Dohme LLC, priority 2021, published 2024)

molecular target: T1, GST-RIPK1 (recombinant GST-RIPK1 kinase domain (residues 1-327)) (Homo sapiens, UniProt Q13546); test: RIPK1-ADP-Glo enzymatic assay; format: biochemical; conditions: 25 nM GST-RIPK1, 300 μM ATP, 3 μM dephosphorylated-MBP; 30 minutes pre-incubation, 150 minutes reaction; ten-point titration
T1 construct: recombinant GST-RIPK1 kinase domain (residues 1-327) enzyme; made in house; host or cells: baculovirus-transfected Sf21 insect cells
T1 sequence (Q13546 1-327): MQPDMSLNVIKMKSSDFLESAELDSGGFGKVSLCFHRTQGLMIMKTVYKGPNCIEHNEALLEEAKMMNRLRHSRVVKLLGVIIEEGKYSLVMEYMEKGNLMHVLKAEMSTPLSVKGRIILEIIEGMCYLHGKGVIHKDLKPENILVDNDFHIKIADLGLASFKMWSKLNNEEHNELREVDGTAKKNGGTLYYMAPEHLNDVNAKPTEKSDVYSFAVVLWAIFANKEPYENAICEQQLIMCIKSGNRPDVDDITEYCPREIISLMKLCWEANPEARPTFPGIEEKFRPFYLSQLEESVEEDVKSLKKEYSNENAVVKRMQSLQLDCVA
How it was run: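 Ten-point 1:3 titrations from 100000 nM, 1% DMSO, were preincubated 30 min with 25 nM GST-RIPK1 (1-327) before starting with 300 μM ATP plus 3 μM dephosphorylated MBP; 150 min reaction. ADP-Glo luminescence measured ATP-to-ADP conversion; EC50 by four-parameter sigmoidal regression.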

Compound	IC50
CC1(C(=O)N2C[C@@H]3C[C@H]2c2cncc(C#N)c2O3)CCOC1 (mixture of isomers) [Compound 1-67, (2S,5S)-4-(3-(S and R)-methyltetrahydrofuran-3-carbonyl)-2,3,4,5-tetrahydro-2,5-methanopyrido[3,4-f][1,4]oxazepine-9-carbonitrile]	640 nM
CCC(C)(C(=O)N1C[C@@H]2C[C@H]1c1cncc(C#N)c1O2)C(F)F (single isomer, unassigned) [Compound 1-84, (2S,5S)-4-(2-(R or S)-(difluoromethyl)-2-methylbutanoyl)-2,3,4,5-tetrahydro-2,5-methanopyrido[3,4-f][1,4]oxazepine-9-carbonitrile]	47 nM
COC(C)(C(=O)N1C[C@@H]2C[C@H]1c1cncc(C#N)c1O2)C1CC1 (mixture of isomers) [Compound 1-62, (2S,5S)-4-(2-(S and R)-cyclopropyl-2-methoxypropanoyl)-2,3,4,5-tetrahydro-2,5-methanopyrido[3,4-f][1,4]oxazepine-9-carbonitrile]	444 nM
CC1(C(=O)N2C[C@@H]3C[C@H]2c2cncc(C#N)c2O3)CC1(F)F (single isomer, unassigned) [Compound 1-29, (2S,5S)-4-[(S or R)-2,2-difluoro-1-methylcyclopropane-1-carbonyl]-2,3,4,5-tetrahydro-2,5-methanopyrido[3,4-f][1,4]oxazepine-9-carbonitrile]	376 nM
N#Cc1cncc2c1O[C@H]1C[C@@H]2N(C(=O)C2(C(F)F)CCC2)C1 [Compound 1-23, (2S,5S)-4-[1-(difluoromethyl)cyclobutane-1-carbonyl]-2,3,4,5-tetrahydro-2,5-methanopyrido[3,4-f][1,4]oxazepine-9-carbonitrile]	88 nM
CC1(C(=O)N2C[C@@H]3C[C@H]2c2cncc(C#N)c2O3)CCCC1(F)F (single isomer, unassigned) [Compound 1-38]	21 nM
N#Cc1cncc2c1O[C@H]1C[C@@H]2N(C(=O)C23CSC(C2)C3)C1 [Compound 1-47, (2S,5S)-4-(2-thiabicyclo[2.1.1]hexane-4-carbonyl)-2,3,4,5-tetrahydro-2,5-methanopyrido[3,4-f][1,4]oxazepine-9-carbonitrile]	22 nM
CC1(C(=O)N2C[C@@H]3C[C@H]2c2cncc(C#N)c2O3)CC1(F)F (single isomer, unassigned) [Compound 1-28, (2S,5S)-4-[(S or R)-2,2-difluoro-1-methylcyclopropane-1-carbonyl]-2,3,4,5-tetrahydro-2,5-methanopyrido[3,4-f][1,4]oxazepine-9-carbonitrile]	201 nM
N#CC12CCC(C(=O)N3C[C@@H]4C[C@H]3c3cncc(F)c3O4)(C1)C2 [Compound 2-24, 4-((2S,5S)-9-fluoro-2,3,4,5-tetrahydro-2,5-methanopyrido[3,4-f][1,4]oxazepine-4-carbonyl)bicyclo[2.1.1] hexane-1-carbonitrile]	111 nM
CC(F)(F)C1(C(=O)N2C[C@@H]3C[C@H]2c2cncc(Cl)c2O3)CCC1 [Compound 2-11, ((2S,5S)-9-chloro-2,3-dihydro-2,5-methanopyrido[3,4-f][1,4]oxazepin-4(5H)-yl)(1-(1,1-difluoroethyl)cyclobutyl) methanone]	57 nM
N#Cc1cncc2c1O[C@H]1C[C@@H]2N(C(=O)C23CCC(F)(CC2)C3)C1 [Compound 1-7, (2S,5S)-4-(4-fluorobicyclo[2.2.1]heptane-1-carbonyl)-2,3,4,5-tetrahydro-2,5-methanopyrido[3,4-f][1,4]oxazepine-9-carbonitrile]	18 nM
N#Cc1cncc2c1O[C@H]1C[C@@H]2N(C(=O)C23CCCC2C3(F)F)C1 (single isomer, unassigned) [Compound 1-87, (2S,5S)-4-((1R,5S or 1S,5R)-6,6-difluorobicyclo[3.1.0]hexane-1-carbonyl)-2,3,4,5-tetrahydro-2,5-methanopyrido[3,4-f][1,4]oxazepine-9-carbonitrile]	68 nM
COC12CCC(C(=O)N3C[C@@H]4C[C@H]3c3cncc(C#N)c3O4)(CC1)C2 [Compound 1-97, (2S,5S)-4-(4-methoxybicyclo[2.2.1]heptane-1-carbonyl)-2,3,4,5-tetrahydro-2,5-methanopyrido[3,4-f][1,4]oxazepine-9-carbonitrile]	92 nM
CN1CC2CC1(C(=O)N1C[C@@H]3C[C@H]1c1cncc(C#N)c1O3)C2 [Compound 1-109, (2S,5S)-4-(2-methyl-2-azabicyclo[2.1.1]hexane-1-carbonyl)-2,3,4,5-tetrahydro-2,5-methanopyrido[3,4-f][1,4]oxazepine-9-carbonitrile]	241 nM
CC1(C(=O)N2C[C@@H]3C[C@H]2c2cncc(C#N)c2O3)CCC(F)(F)CC1 [Compound 1-36, (2S,5S)-4-(4,4-difluoro-1-methylcyclohexane-1-carbonyl)-2,3,4,5-tetrahydro-2,5-methanopyrido[3,4-f][1,4]oxazepine-9-carbonitrile]	973 nM
N#Cc1cncc2c1O[C@H]1C[C@@H]2N(C(=O)C23CCCC2C3(F)F)C1 (stereo partly drawn) [Compound 1-81, (2S,5S)-4-(6,6-difluorobicyclo[3.1.0]hexane-1-carbonyl)-2,3,4,5-tetrahydro-2,5-methanopyrido[3,4-f][1,4]oxazepine-9-carbonitrile]	93 nM

Next, values leading:

IC50	Compound
12 nM	N#Cc1cccc(C#Cc2cncc3c2O[C@H]2C[C@@H]3N(C(=O)C34CCC(F)(CC3)C4)C2)c1 [Compound 2-100, 3-(((2S,5S)-4-(4-fluorobicyclo[2.2.1]heptane-1-carbonyl)-2,3,4,5-tetrahydro-2,5-methanopyrido[3,4-f][1,4]oxazepin-9-yl)ethynyl)benzonitrile]
49 nM	CC(C)(C(=O)N1C[C@@H]2C[C@H]1c1cncc(C#Cc3cnc(C(F)(F)F)nc3)c1O2)C(F)F [Compound 2-77, 3,3-difluoro-2,2-dimethyl-1-((2S,5S)-9-((2-(trifluoromethyl)pyrimidin-5-yl)ethynyl)-2,3-dihydro-2,5-methanopyrido[3,4-f][1,4]oxazepin-4(5H)-yl)propan-1-one]
15 nM	CC(C)(C(=O)N1C[C@@H]2C[C@H]1c1cncc(C#Cc3ccc4nccnc4c3)c1O2)C(F)F [Compound 2-34, 3,3-Difluoro-2,2-dimethyl-1-((2S,5S)-9-(quinoxalin-6-ylethynyl)-2,3-dihydro-2,5-methanopyrido[3,4-f][1,4]oxazepin-4(5H)-yl)propan-1-one]
150 nM	CC(C)(C(=O)N1C[C@@H]2C[C@H]1c1cncc(C#CCC3CCOCC3)c1O2)C(F)F [Compound 2-107, 3,3-difluoro-2,2-dimethyl-1-((2S,5S)-9-(3-(tetrahydro-2H-pyran-4-yl)prop-1-yn-1-yl)-2,3-dihydro-2,5-methanopyrido[3,4-f][1,4]oxazepin-4(5H)-yl)propan-1-one]
432 nM	C[C@@H]1C2CN(C(=O)C(C)(C)C(F)F)[C@H]1c1cncc(C#N)c1O2 (single isomer, unassigned) [Compound 5-3]
140 nM	CC(C)(C(=O)N1C[C@@H]2C[C@H]1c1cncc(C#CCn3nnc4ccccc43)c1O2)C(F)F [Compound 2-40, 1-((2S,5S)-9-(3-(1H-benzo[d][1,2,3]triazol-1-yl)prop-1-yn-1-yl)-2,3-dihydro-2,5-methanopyrido[3,4-f][1,4]oxazepin-4(5H)-yl)-3,3-difluoro-2,2-dimethylpropan-1-one]
32 nM	CC(C)(C(=O)N1C[C@@H]2C[C@H]1c1cncc(C#Cc3ccc(C#N)nc3)c1O2)C(F)F [Compound 2-87, 5-(((2S,5S)-4-(3,3-difluoro-2,2-dimethylpropanoyl)-2,3,4,5-tetrahydro-2,5-methanopyrido[3,4-f][1,4]oxazepin-9-yl)ethynyl)picolinonitrile]
197 nM	CC(C)C#Cc1cncc2c1O[C@H]1C[C@@H]2N(C(=O)C(C)(C)C(F)F)C1 [Compound 2-106, 3,3-Difluoro-2,2-dimethyl-1-((2S,5S)-9-(3-methylbut-1-yn-1-yl)-2,3-dihydro-2,5-methanopyrido[3,4-f][1,4]oxazepin-4(5H)-yl)propan-1-one]
48 nM	CC(C)(C(=O)N1C[C@@H]2C[C@H]1c1cncc(C#Cc3ccc(F)cc3F)c1O2)C(F)F [Compound 2-43, 1-((2S,5S)-9-((2,4-difluorophenyl)ethynyl)-2,3-dihydro-2,5-methanopyrido[3,4-f][1,4]oxazepin-4(5H)-yl)-3,3-difluoro-2,2-dimethylpropan-1-one]
1530 nM	CC(C)(C(=O)N1C[C@@H]2C[C@H]1c1cncc(C#CC34CC(C(F)(F)F)(C3)C4)c1O2)C(F)F [Compound 2-114, 3,3-difluoro-2,2-dimethyl-1-((2S,5S)-9-((3-(trifluoromethyl)bicyclo [1.1.1]pentan-1-yl)ethynyl)-2,3-dihydro-2,5-methanopyrido[3,4-f][1,4]oxazepin-4(5H)-yl)propan-1-one]
19 nM	COc1ccc(C#Cc2cncc3c2O[C@H]2C[C@@H]3N(C(=O)C(C)(C)C(F)F)C2)cn1 [Compound 2-92, 3,3-difluoro-1-((2S,5S)-9-((6-methoxypyridin-3-yl)ethynyl)-2,3-dihydro-2,5-methanopyrido[3,4-f][1,4]oxazepin-4(5H)-yl)-2,2-dimethylpropan-1-one]
